According to patent US11690824B2, “Antibacterial compounds” (THE GENERAL HOSPITAL CORPORATION, priority 2018, dated 2023):
≈ marks a conversion by molar mass, not a printed value. Read-outs that look alike come from different tables or passages of the source.

How the values were obtained:
S. aureus (MRSA) MW2 = assay: Minimal inhibitory concentration (MIC) assay, micro-dilution; assay type: cell-based; details: for antibiotic activity / potency relative to nTZDpa: growing S. aureus cells
From the text: Bacterial strains, growth conditions, and persister isolation. Methicillin-resistant S. aureus strains, MW2 BAA-1707, ATCC 33591, and JE2, methicillin-susceptible S. aureus strains, NCTC 8325, Newman, and ATCC 29213, vancomycin-resistant S. aureus strain, VRS1, Enterococcus faecium E007, vancomycin-resistant E. faecium strains, C68,^7 WB312, and WC196, Klebsiella pneumoniae WGLW2 (BEI Resources, Manassas, Va., USA), Acinetobacter baumannii ATCC 17978, Pseudomonas aeruginosa PA14, and Enterobacter aerogenes ATCC 13048 were used to test antimicrobial activity (Table 1). S. aureus strains were grown in tryptic soy broth (TSB) (BD, Franklin Lakes, N.J., USA), and E. faecium was grown in brain-heart infusion (BHI) broth (BD, Franklin Lakes, N.J., USA) at 37° C. K. pneumoniae, A. baumannii, P. aeruginosa, and E. aerogenes were grown in Luria Bertani (LB) broth (BD, Franklin Lakes, N.J., USA) at 37° C.
Minimal inhibitory concentration (MIC) assay. The MICS of antibiotics were determined by the standard micro-dilution method recommended by the Clinical and Laboratory Standards Institute. MIC assays were conducted in biological triplicate.

human erythrocytes = assay: Human blood hemolysis; assay type: cell-based; details: human erythrocytes
Method: Human blood hemolysis. Hemolytic activity was evaluated as described in a previous study. Briefly, 100 μL of 4% human erythrocytes (Rockland Immunochemicals, Limerick, Pa., USA) was added to 100 μL of 2-fold serial dilutions of compounds in PBS, 0.2% DMSO (negative control), or 2% Triton-X 100 (positive control) in a 96-well plate. The 96-well plate was incubated at 37° C. for 1 h and then centrifuged at 500× g for 5 min. 50 μL of the supernatant was transferred to a fresh 96-well plate, and absorbance of supernatants was measured at 540 nm. Percent hemolysis was calculated using the following equation: (A540 nm of compound treated sample−A540 nm of 0.1% DMSO treated sample)/(A540 nm of 1% Triton X-100 treated sample−A540 nm of 0.1% DMSO treated sample)×100. HC50 (concentration of a compound causing 50% hemolysis) was determined using SigmaPlot 10.0 (Systat Software Inc., San Jose, Calif., USA).

[1] = Staphylococcus aureus, Table 3, growing MRSA, read-out: MIC
[2] = Staphylococcus aureus, MRSA, PPARγ agonists, read-out: MICS against S. aureus MW2
[3] = Staphylococcus aureus, Example 5, MRSA MW2, read-out: MIC

MIC (S. aureus (MRSA) MW2; [1]) [µg/mL] | Structure (SMILES) | HC50: median hemolytic concentration (human erythrocytes) [µg/mL] | other results
– | OCc1c(Oc2ccccc2)c2cc(Cl)ccc2n1Cc1ccc(Cl)cc1 [Compound S13, (5-chloro-1-(4-chlorobenzyl)-3-phenoxy-1H-indol-2-yl)methanol] | – | antibiotic activity / potency relative to nTZDpa (S. aureus (MRSA) MW2): reduction of antibiotic activity
2 (≈ 4.48 µM) | O=C(O)c1c(Oc2ccccc2)c2cc(Cl)ccc2n1Cc1ccc(Cl)c(Cl)c1 [Compound 10, 5-chloro-1-(3,4-dichlorobenzyl)-3-phenoxy-1H-indole-2-carboxylic acid] | >64 | –
2 (≈ 4.07 µM) | O=C(O)c1c(Oc2ccc(Br)cc2)c2cc(Cl)ccc2n1Cc1ccc(Cl)cc1 [Compound 13, 3-(4-bromophenoxy)-5-chloro-1-(4-chlorobenzyl)-1H-indole-2-carboxylic acid] | >64 | –
– | CCc1ccc(CCOc2ccc(CC3SC(=O)NC3=O)cc2)nc1 (stereo not drawn) [pioglitazone, reference compound] | – | MIC (S. aureus (MRSA) MW2; [2]): > 64 µg/mL
2 (≈ 4.13 µM) | CC(C)(C)c1ccc(Sc2c(C(=O)O)n(Cc3ccc(Cl)cc3)c3ccc(Cl)cc23)cc1 [Compound 5, 3-((4-(tert-butyl)phenyl)thio)-5-chloro-1-(4-chlorobenzyl)-1H-indole-2-carboxylic acid] | 26 | –
1 (≈ 2.08 µM) | O=C(O)c1c(Oc2ccc(Cl)c(Cl)c2)c2cc(Cl)ccc2n1Cc1ccc(Cl)cc1 [Compound 12, 5-chloro-1-(4-chlorobenzyl)-3-(3,4-dichlorophenoxy)-1H-indole-2-carboxylic acid] | 38 | –
– | O=C(O)c1c(Sc2ccccc2)c2cc(Cl)ccc2n1Cc1ccccc1 [S4 (analog 2), 1-benzyl-5-chloro-3-(phenylthio)-1H-indole-2-carboxylic acid] | – | MIC (S. aureus (MRSA) MW2; [3]): 16 µg/mL (≈ 40.6 µM)
– | Cn1c(C(=O)O)c(Sc2ccccc2)c2cc(Cl)ccc21 [Analog 5, 5-chloro-1-methyl-3-(phenylthio)-1H-indole-2-carboxylic acid] | – | MIC (S. aureus (MRSA) MW2; [3]): 64 µg/mL (≈ 201 µM)
– | CN(CCOc1ccc(CC2SC(=O)NC2=O)cc1)c1ccccn1 (stereo not drawn) [rosiglitazone, reference compound] | – | MIC (S. aureus (MRSA) MW2; [2]): > 64 µg/mL
2 (≈ 4.32 µM) | O=C(O)c1c(Sc2ccc(Cl)cc2)c2cc(Cl)ccc2n1Cc1ccc(Cl)cc1 [Compound 4, 5-chloro-1-(4-chlorobenzyl)-3-((4-chlorophenyl)thio)-1H-indole-2-carboxylic acid] | 34 | –
– | O=C(O)c1c(Cc2ccccc2)c2cc(Cl)ccc2n1Cc1ccc(Cl)cc1 [Compound S12, 3-benzyl-5-chloro-1-(4-chlorobenzyl)-1H-indole-2-carboxylic acid] | – | antibiotic activity / potency relative to nTZDpa (S. aureus (MRSA) MW2): less potency
– | O=C(O)c1c(Sc2ccccc2)c2cc(Cl)ccc2n1Cc1cccc(Cl)c1 [Analog 2b, 5-chloro-1-(3-chlorobenzyl)-3-(phenylthio)-1H-indole-2-carboxylic acid] | – | MIC (S. aureus (MRSA) MW2; Example 5, MRSA MW2): same MIC
1 (≈ 1.86 µM) | O=C(O)c1c(Oc2ccc(I)cc2)c2cc(Cl)ccc2n1Cc1ccc(Cl)cc1 [Compound 14, 5-chloro-1-(4-chlorobenzyl)-3-(4-iodophenoxy)-1H-indole-2-carboxylic acid] | >64 | –
2 (≈ 4.48 µM) | O=C(O)c1c(Oc2ccc(Cl)cc2)c2cc(Cl)ccc2n1Cc1ccc(Cl)cc1 [Compound 11, 5-chloro-1-(4-chlorobenzyl)-3-(4-chlorophenoxy)-1H-indole-2-carboxylic acid] | >64 | –
